Earlier results in patent US11452694B2, “High concentration dosage forms of pridopidine” (PRILENIA NEUROTHERAPEUTICS LTD., priority 2017, dated 2022).

Test system: neuroblastoma cell line
Settings: SIR-dependent manner

In the case of `CCCN1CCC(c2cccc(S(C)(=O)=O)c2)CC1` [Pridopidine, 4-(3-(Methylsulfonyl)phenyl)-1-propylpiperidine], the “secretion of brain-derived neurotrophic factor (BDNF)” value is given as “enhance secretion”.
